Data: publication PMC6930582, “Synthesis and Evaluation of Novel 2H-Benzo[e]-[1,2,4]thiadiazine 1,1-Dioxide Derivatives as PI3Kδ Inhibitors” (Molecules, 2019)
“Also recorded” adds a separate entry of the source. Where two headings read alike, the source gives them in different places.

Assays:
SU-DHL-6 cells = assay: SU-DHL-6 cell proliferation assay (CellTiter-Glo); format: cell-based, human; conditions: for GI50: Homo sapiens, SU-DHL-6 cell growth inhibition, CellTiter-Glo, mean ± SD from two separate experiments; for SU-DHL-6 cell proliferation inhibition (in words): qualitative statement
Protocol: The selective PI3Kδ inhibitors 15a and 15b were further evaluated for their antiproliferative activity against human B-cell SU-DHL-6.
Cell proliferation was evaluated by The CellTiter-Glo luminescent cell viability assay (Promega, Shanghai, China) was used to evaluate the inhibitory activity of compounds 15a and 15b following the manufacturer’s protocol. In brief, SU-DHL-6 (ATCC) cells were seeded in 96-well plates (Corning, Los Altos, MA, USA) at density of 1 × 10^4 cells per well, and incubated with medium alone or with the tested compounds at the indicated concentrations (50 μM in DMSO, 3-fold dilution, in duplicate for 10 concentrations). 50 μL CellTiter-Glo (Promega, Shanghai, China) reagent was added to each well to induce cell lysis, and the plate was incubated at room temperature for 10 min to stabilize luminescent signal. After 100 μL of the mixture from each well was transferred to a new 96-well black plate, the […] signal was read on EnVision (Shanghai, China) and the data were analysized by XLFit 4 software (IDBS, Berlin, Germany).

PI3Kα [1] = biological target: T1, PI3Kα (Homo sapiens, UniProt P42336); assay: PI3Kα kinase assay (kinase-Glo luminescent assay); format: biochemical; conditions: for IC50: kinase-Glo, mean ± SD from two separate experiments
PI3Kδ = PI3Kδ (Homo sapiens, UniProt O00329); assay: PI3Kδ kinase assay (ADP-Glo luminescent assay); format: biochemical; conditions: for IC50: ADP-Glo, mean ± SD from two separate experiments, Table 1 and text, read-out: PI3Kδ inhibitory activity IC50; for PI3Kδ inhibitory activity (in words): qualitative statement; for decrease in PI3Kδ potency on introduction of 7-fluorine: compared with the non-fluorinated analogue
PI3Kβ [2] = biological target: T2, PI3Kβ (Homo sapiens, UniProt P42338); assay: PI3Kβ kinase assay (ADP-Glo luminescent assay); format: biochemical; conditions: for IC50: ADP-Glo, mean ± SD from two separate experiments
PI3Kγ [3] = biological target: T3, PI3Kγ (Homo sapiens, UniProt P48736); assay: PI3Kγ kinase assay (ADP-Glo luminescent assay); format: biochemical; conditions: mean ± SD from two separate experiments
PI3Kα [4] = biological target: T1, PI3Kα; parameters: method as in PMID 29601991; conditions: quinazolinone leads, previous work; ref [33]; cited from earlier work
PI3Kβ [5] = biological target: T2, PI3Kβ; parameters: method as in PMID 29601991; conditions: quinazolinone leads, previous work; ref [33]; cited from earlier work
PI3Kγ [6] = biological target: T3, PI3Kγ; parameters: method as in PMID 29601991; conditions: quinazolinone leads, previous work; ref [33]; cited from earlier work

Sequence of PI3Kδ (O00329 whole entry): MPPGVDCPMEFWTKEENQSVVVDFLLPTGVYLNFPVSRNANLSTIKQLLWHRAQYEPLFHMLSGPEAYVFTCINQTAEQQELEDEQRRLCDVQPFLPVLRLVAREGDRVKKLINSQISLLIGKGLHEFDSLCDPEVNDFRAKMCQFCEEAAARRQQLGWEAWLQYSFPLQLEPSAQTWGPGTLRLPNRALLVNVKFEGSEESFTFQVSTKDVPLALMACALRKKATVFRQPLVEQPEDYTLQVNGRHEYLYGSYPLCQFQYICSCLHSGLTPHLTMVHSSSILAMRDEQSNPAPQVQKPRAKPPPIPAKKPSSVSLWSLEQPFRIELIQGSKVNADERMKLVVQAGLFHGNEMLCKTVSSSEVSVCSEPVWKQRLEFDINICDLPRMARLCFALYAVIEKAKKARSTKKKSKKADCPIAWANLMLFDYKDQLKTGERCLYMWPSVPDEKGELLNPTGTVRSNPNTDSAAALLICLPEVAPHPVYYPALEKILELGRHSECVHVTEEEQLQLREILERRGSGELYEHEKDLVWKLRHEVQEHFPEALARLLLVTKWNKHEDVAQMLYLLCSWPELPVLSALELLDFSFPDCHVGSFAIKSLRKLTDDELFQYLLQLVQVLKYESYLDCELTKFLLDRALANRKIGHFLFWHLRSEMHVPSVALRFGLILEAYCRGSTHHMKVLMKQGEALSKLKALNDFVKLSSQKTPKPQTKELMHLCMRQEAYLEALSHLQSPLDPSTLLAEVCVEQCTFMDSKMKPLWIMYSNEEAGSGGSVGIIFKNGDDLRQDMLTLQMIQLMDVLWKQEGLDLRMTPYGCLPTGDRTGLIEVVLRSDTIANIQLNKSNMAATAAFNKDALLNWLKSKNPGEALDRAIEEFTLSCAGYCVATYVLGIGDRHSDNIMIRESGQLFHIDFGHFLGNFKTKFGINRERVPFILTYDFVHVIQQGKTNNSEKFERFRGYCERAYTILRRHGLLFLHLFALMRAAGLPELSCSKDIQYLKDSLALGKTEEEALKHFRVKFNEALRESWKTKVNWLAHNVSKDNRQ
Sequence of PI3Kδ (P27986 whole entry partner): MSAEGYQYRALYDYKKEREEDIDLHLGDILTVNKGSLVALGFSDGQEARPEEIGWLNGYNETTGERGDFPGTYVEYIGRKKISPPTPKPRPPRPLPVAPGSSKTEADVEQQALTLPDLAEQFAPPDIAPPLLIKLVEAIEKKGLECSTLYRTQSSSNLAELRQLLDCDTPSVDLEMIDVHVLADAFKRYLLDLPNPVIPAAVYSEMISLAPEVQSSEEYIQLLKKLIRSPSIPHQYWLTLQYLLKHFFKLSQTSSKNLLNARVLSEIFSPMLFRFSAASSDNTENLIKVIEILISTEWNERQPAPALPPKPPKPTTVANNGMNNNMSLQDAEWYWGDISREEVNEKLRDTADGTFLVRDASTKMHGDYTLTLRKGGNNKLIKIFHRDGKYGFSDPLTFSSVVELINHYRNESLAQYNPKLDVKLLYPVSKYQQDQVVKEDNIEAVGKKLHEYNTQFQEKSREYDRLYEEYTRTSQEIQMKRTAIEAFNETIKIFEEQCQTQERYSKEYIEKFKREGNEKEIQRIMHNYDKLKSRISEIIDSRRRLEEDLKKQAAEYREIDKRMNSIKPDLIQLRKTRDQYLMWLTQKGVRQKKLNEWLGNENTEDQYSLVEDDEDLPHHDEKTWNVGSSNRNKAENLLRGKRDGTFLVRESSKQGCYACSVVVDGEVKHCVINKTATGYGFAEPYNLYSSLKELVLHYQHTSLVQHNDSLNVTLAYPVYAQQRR
T1 sequence (P42336 whole entry): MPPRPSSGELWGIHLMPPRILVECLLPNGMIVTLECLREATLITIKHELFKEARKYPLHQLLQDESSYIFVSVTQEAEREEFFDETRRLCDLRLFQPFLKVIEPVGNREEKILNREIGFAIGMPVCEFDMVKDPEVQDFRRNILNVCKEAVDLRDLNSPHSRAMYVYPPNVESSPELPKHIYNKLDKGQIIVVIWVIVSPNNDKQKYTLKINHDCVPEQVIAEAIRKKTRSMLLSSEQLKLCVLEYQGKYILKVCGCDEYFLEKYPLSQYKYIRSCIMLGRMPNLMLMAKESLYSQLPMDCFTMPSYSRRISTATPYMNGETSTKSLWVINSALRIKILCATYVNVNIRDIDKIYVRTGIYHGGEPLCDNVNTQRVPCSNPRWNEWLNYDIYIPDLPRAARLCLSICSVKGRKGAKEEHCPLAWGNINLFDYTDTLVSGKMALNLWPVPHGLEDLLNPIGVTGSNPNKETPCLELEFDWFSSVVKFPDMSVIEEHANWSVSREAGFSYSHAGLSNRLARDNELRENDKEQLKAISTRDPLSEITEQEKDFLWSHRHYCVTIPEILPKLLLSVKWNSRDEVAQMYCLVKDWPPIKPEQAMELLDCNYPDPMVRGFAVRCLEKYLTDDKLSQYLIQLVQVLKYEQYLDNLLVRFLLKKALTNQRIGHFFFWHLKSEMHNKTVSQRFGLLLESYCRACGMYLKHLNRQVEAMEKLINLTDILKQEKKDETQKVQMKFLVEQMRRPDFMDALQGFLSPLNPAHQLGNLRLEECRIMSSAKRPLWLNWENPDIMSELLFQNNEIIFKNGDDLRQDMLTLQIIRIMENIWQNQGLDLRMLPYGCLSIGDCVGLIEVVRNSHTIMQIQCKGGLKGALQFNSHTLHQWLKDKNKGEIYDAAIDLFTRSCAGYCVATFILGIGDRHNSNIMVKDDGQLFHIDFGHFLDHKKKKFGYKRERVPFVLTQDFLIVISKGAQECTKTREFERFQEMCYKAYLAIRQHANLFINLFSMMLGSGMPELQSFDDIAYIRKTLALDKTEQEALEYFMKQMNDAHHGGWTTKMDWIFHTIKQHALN
T1 sequence (P27986 whole entry partner): as the sequence (P27986 whole entry partner) above
T3 sequence (P48736 whole entry): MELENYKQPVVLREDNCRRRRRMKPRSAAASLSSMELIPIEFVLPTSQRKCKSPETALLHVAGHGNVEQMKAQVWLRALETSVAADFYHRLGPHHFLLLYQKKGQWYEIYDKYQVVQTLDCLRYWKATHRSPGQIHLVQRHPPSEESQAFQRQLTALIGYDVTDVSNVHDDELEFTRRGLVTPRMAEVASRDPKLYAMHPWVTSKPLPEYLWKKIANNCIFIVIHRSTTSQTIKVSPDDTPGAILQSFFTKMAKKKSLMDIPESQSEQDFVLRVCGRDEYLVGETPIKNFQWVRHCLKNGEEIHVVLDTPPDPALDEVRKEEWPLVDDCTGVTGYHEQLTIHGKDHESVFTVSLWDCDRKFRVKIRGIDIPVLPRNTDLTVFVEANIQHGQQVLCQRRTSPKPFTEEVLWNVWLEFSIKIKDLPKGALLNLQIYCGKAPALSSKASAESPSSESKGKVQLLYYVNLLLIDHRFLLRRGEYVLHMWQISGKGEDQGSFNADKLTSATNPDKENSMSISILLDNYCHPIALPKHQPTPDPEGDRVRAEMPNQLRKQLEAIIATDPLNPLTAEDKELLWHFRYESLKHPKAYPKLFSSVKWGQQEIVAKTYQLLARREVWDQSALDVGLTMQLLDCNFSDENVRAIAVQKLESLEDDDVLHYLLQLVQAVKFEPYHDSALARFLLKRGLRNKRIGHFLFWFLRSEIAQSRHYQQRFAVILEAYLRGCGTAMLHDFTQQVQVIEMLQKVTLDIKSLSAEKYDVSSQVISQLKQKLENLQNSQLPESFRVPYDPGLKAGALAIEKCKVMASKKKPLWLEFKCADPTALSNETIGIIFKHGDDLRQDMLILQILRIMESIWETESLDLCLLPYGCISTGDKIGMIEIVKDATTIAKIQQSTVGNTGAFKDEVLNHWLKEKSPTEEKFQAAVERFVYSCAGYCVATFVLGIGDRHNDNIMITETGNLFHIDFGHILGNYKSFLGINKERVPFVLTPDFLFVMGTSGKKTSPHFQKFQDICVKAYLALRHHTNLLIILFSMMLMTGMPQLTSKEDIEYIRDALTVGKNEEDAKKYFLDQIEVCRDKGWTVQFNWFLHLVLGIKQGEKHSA
T2 sequence (P42338 whole entry): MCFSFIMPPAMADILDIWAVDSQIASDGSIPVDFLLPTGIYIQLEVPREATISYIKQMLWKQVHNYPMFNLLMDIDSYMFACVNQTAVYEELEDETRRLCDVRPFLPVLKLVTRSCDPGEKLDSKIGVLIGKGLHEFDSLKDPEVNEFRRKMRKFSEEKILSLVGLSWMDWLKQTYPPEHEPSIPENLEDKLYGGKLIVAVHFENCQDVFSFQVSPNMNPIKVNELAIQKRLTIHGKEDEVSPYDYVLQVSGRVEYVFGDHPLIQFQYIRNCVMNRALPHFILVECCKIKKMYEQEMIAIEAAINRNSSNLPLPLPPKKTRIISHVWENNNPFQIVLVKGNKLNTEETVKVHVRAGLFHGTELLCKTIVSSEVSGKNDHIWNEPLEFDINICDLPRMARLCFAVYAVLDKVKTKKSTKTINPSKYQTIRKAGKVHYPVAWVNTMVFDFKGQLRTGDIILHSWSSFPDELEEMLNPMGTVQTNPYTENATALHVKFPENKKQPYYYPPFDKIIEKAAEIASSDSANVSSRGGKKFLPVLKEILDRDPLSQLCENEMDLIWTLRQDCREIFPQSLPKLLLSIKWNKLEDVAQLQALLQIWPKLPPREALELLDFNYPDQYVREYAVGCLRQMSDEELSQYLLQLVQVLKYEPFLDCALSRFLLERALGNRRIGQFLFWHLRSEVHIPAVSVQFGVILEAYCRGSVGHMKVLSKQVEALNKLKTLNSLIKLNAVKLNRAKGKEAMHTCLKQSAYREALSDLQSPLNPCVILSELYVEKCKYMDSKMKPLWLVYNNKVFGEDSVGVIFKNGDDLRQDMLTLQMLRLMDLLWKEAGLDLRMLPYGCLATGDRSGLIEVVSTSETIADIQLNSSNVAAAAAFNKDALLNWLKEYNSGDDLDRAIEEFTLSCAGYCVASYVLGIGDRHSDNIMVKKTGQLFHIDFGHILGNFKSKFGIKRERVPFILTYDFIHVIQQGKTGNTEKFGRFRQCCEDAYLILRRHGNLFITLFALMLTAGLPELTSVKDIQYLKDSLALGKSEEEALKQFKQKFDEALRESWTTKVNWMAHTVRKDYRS
T2 sequence (P27986 whole entry partner): as the sequence (P27986 whole entry partner) above

Row | SMILES | IC50 (PI3Kδ) | melting point | PI3Kδ inhibitory activity (in words) (PI3Kδ) | other results
1 | Cc1cccc(C)c1N1C(Cn2nc(-c3ccc4[nH]ccc4c3)c3c(N)ncnc32)=Nc2ccccc2S1(=O)=O [15a, 3-((4-Amino-3-(1H-indol-5-yl)-1H-pyrazolo[3,4-d]pyrimidin-1-yl)methyl)-2-(2,6-dimethylphenyl)-2H-benzo[e][1,2,4]thiadiazine 1,1-dioxide] | 217 ± 28 nM |  |  | GI50 (SU-DHL-6 cells): 2130 ± 90 nM; SU-DHL-6 cell proliferation inhibition (in words) (SU-DHL-6 cells): significantly inhibited; also recorded: high antiproliferative potency; IC50 (PI3Kα [1]): > 50000 nM; IC50 (PI3Kβ [2]): 30600 ± 875 nM; IC50 (PI3Kγ [3]): > 50000 nM
2 | COc1ccc(-c2nn(CC3=Nc4ccccc4S(=O)(=O)N3c3c(C)cccc3C)c3ncnc(N)c23)cc1OC [15b, 3-((4-Amino-3-(3,4-dimethoxyphenyl)-1H-pyrazolo[3,4-d]pyrimidin-1-yl)methyl)-2-(2,6-dimethylphenyl)-2H-benzo[e][1,2,4]thiadiazine 1,1-dioxide] | 266 ± 31 nM | 220 to 222 °C |  | GI50 (SU-DHL-6 cells): 2500 ± 110 nM; SU-DHL-6 cell proliferation inhibition (in words) (SU-DHL-6 cells): significantly inhibited; also recorded: high antiproliferative potency; IC50 (PI3Kα [1]): 16400 ± 768 nM; selectivity for PI3Kδ over PI3Kα (PI3Kα [1]; ratio of IC50 values): more than 60 fold; IC50 (PI3Kβ [2]): 24200 ± 495 nM; selectivity for PI3Kδ over PI3Kβ (PI3Kβ [2]; ratio of IC50 values): > 90 fold; IC50 (PI3Kγ [3]): 5840 ± 135 nM
3 | COc1ccc(-c2nn(CC3=Nc4ccccc4S(=O)(=O)N3c3c(C)cccc3C)c3ncnc(N)c23)cc1F [15c, 3-((4-Amino-3-(3-fluoro-4-methoxyphenyl)-1H-pyrazolo[3,4-d]pyrimidin-1-yl)methyl)-2-(2,6-dimethyl-phenyl)-2H-benzo[e][1,2,4]thiadiazine 1,1-dioxide] | 980 ± 45 nM |  | marginal activity | 
4 | COc1ccc(-c2nn(CC3=Nc4ccccc4S(=O)(=O)N3c3c(C)cccc3C)c3ncnc(N)c23)cn1 [15d, 3-((4-Amino-3-(6-methoxypyridin-3-yl)-1H-pyrazolo[3,4-d]pyrimidin-1-yl)methyl)-2-(2,6-dimethylphenyl)-2H-benzo[e][1,2,4]thiadiazine 1,1-dioxide] | 498 ± 33 nM |  |  | 
5 | Cc1cccc(C)c1N1C(Cn2nc(-c3ccc4c(c3)OCCO4)c3c(N)ncnc32)=Nc2ccccc2S1(=O)=O [15e, 3-((4-Amino-3-(2,3-dihydrobenzo[b][1,4]dioxin-6-yl)-1H-pyrazolo[3,4-d]pyrimidin-1-yl)methyl)-2-(2,6-dimethylphenyl)-2H-benzo[e][1,2,4]thiadiazine 1,1-dioxide] | > 1000 nM | 225 to 226 °C | not tolerated | 
6 | Cc1cccc(C)c1N1C(Cn2nc(-c3ccc4c(c3)OCO4)c3c(N)ncnc32)=Nc2ccccc2S1(=O)=O [15f, 3-((4-Amino-3-(benzo[d][1,3]dioxol-5-yl)-1H-pyrazolo[3,4-d]pyrimidin-1-yl)methyl)-2-(2,6-dimethyl-phenyl)-2H-benzo[e][1,2,4]thiadiazine 1,1-dioxide] | > 1000 nM | > 250 °C | not tolerated | 
7 | COc1ccc(-c2nn(CC3=Nc4ccccc4S(=O)(=O)N3c3c(C)cccc3C)c3ncnc(N)c23)cc1 [15g, 3-((4-Amino-3-(4-methoxyphenyl)-1H-pyrazolo[3,4-d]pyrimidin-1-yl)methyl)-2-(2,6-dimethylphenyl)-2H-benzo[e][1,2,4]thiadiazine 1,1-dioxide] | > 1000 nM |  | not tolerated | 
8 | COc1cccc(-c2nn(CC3=Nc4ccccc4S(=O)(=O)N3c3c(C)cccc3C)c3ncnc(N)c23)c1 [15h, 3-((4-Amino-3-(3-methoxyphenyl)-1H-pyrazolo[3,4-d]pyrimidin-1-yl)methyl)-2-(2,6-dimethylphenyl)-2H-benzo[e][1,2,4]thiadiazine 1,1-dioxide] | > 1000 nM |  | not tolerated | 
9 | Cc1cccc(C)c1N1C(Cn2nc(-c3ccc(OC(F)(F)F)cc3)c3c(N)ncnc32)=Nc2ccccc2S1(=O)=O [15i, 3-((4-Amino-3-(4-(trifluoromethoxy)phenyl)-1H-pyrazolo[3,4-d]pyrimidin-1-yl)methyl)-2-(2,6-dimethyl-phenyl)-2H-benzo[e][1,2,4]thiadiazine 1,1-dioxide] | > 1000 nM | 206 to 207 °C | not tolerated | 
10 | Cc1cccc(C)c1N1C(Cn2nc(-c3ccccc3)c3c(N)ncnc32)=Nc2ccccc2S1(=O)=O [15j, 3-((4-Amino-3-phenyl-1H-pyrazolo[3,4-d]pyrimidin-1-yl)methyl)-2-(2,6-dimethylphenyl)-2H-benzo[e]-[1,2,4]thiadiazine 1,1-dioxide] | > 1000 nM |  | not tolerated | 
11 | Cc1cccc(C)c1N1C(Cn2nc(-c3ccc4[nH]ccc4c3)c3c(N)ncnc32)=Nc2ccc(F)cc2S1(=O)=O [16a, 3-((4-Amino-3-(1H-indol-5-yl)-1H-pyrazolo[3,4-d]pyrimidin-1-yl)methyl)-2-(2,6-dimethylphenyl)-7-fluoro-2H-benzo[e][1,2,4]thiadiazine 1,1-dioxide] | > 1000 nM | 132 to 133 °C | lost its activity | 
12 | COc1ccc(-c2nn(CC3=Nc4ccc(F)cc4S(=O)(=O)N3c3c(C)cccc3C)c3ncnc(N)c23)cc1OC [16b, 3-((A-amino-3-(3,4-dimethoxyphenyl)-1H-pyrazolo[3,4-d]pyrimidin-1-yl)methyl)-2-(2,6-dimethylphenyl)-7-fluoro-2H-benzo[e][1,2,4]thiadiazine 1,1-dioxide] | 518 ± 62 nM | 229 to 230 °C |  | decrease in PI3Kδ potency on introduction of 7-fluorine (PI3Kδ): ~2 fold
13 | COc1ccc(-c2nn(CC3=Nc4ccc(F)cc4S(=O)(=O)N3c3c(C)cccc3C)c3ncnc(N)c23)cc1F [16c, 3-((4-Amino-3-(3-fluoro-4-methoxyphenyl)-1H-pyrazolo[3,4-d]pyrimidin-1-yl)methyl)-2-(2,6-dimethyl-phenyl)-7-fluoro-2H-benzo[e][1,2,4]thiadiazine 1,1-dioxide] | 824 ± 76 nM | 201 to 202 °C | slight increase in potency | 
14 | COc1ccc(-c2nn(CC3=Nc4ccc(F)cc4S(=O)(=O)N3c3c(C)cccc3C)c3ncnc(N)c23)cn1 [16d, 3-((4-Amino-3-(6-methoxypyridin-3-yl)-1H-pyrazolo[3,4-d]pyrimidin-1-yl)methyl)-2-(2,6-dimethylphenyl)-7-fluoro-2H-benzo[e][1,2,4]thiadiazine 1,1-dioxide] | 823 ± 69 nM |  |  | decrease in PI3Kδ potency on introduction of 7-fluorine (PI3Kδ): ~2 fold
15 | CC[C@H](Nc1ncnc2[nH]cnc12)c1nc2cccc(F)c2c(=O)n1-c1ccccc1 [CAL-101, reference compound] |  |  |  | GI50 (SU-DHL-6 cells): 39 ± 11 nM
16 | Cc1cccc(C)c1-n1c(Cn2nc(-c3ccc4[nH]ccc4c3)c3c(N)ncnc32)nc2cccc(F)c2c1=O [compound 3] |  |  |  | selectivity for PI3Kδ over PI3Kα (PI3Kα [4]): more than 3630 fold; selectivity for PI3Kδ over PI3Kβ (PI3Kβ [5]): > 390 fold; selectivity for PI3Kδ over PI3Kγ (PI3Kγ [6]): > 40 fold
17 | COc1ccc(-c2nn(Cc3nc4cccc(F)c4c(=O)n3-c3c(C)cccc3C)c3ncnc(N)c23)cc1OC [compound 4] |  |  |  | selectivity for PI3Kδ over PI3Kα (PI3Kα [4]): more than 1400 fold; selectivity for PI3Kδ over PI3Kβ (PI3Kβ [5]): > 820 fold; selectivity for PI3Kδ over PI3Kγ (PI3Kγ [6]): 7 fold
